Key:
Type in all cases: cell-based
[1] = tested on: T47D (PI3Kα H1047R mutant) cells; assay: Inhibition of pAKT formation, alphaLISA SureFire Ultra AKT 1/2/3 (pS473), T47D cells; conditions: Homo sapiens, T47D
In short: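 T47D cells (12,000/well) in HBSS were dosed with compound at 10 concentrations (10.4 μM top, 1:4 dilutions) for about 1 h or 24 h at 37 °C, then lysed. pS473 AKT was read by alphaLISA. Signals were normalized to alpelisib and DMSO controls, and IC50 came from a four-parameter fit.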

[2] = tested on: SKBR3 (PI3Kα wild type) cells; assay: Inhibition of pAKT formation, alphaLISA SureFire Ultra AKT 1/2/3 (pS473), SKBR3 cells; conditions: Homo sapiens, SK-BR-3; Inhibition of pAKT in SKBR3 (PI3Kα wild type) cells; read-out: SKBR3 (WT) pAKT IC50 (nM) (H1047R mutant) IC50
Description: The ability of a compound of Formula (I) to inhibit the formation of pAKT was measured using alphaLISA Surefire Ultra AKT 1/2/3 (pS473) Assay Kit (#ALSU-PAKT-B50K) was obtained from Perkin Elmer (Waltham, MA).
To prepare assay plates for pAKT alphaLISA assays, cells were trypsinized, resuspended in fresh media, and viable cells were counted utilizing trypan blue exclusion. Prior to seeding, cells were washed with PBS and resuspended in HBSS (Gibco, #14025092). T47D (12,000/w), SKBR3(12,000/w), or MKN1(24,000/w) cells were seeded at 12 μl per well in a solid white flat bottom 384 cell culture plate (Perkin Elmer #6007680).
Immediately after seeding, cells were dosed using an Echo Liquid Handler (Beckman Coulter) with compounds at a […] starting concentration and serially diluted (1:4) for a total of 10 concentrations. […] Cells were incubated with the compounds (solubilized in DMSO) for approximately one hour or 24 hours at 37° C. After one hour (or 24 hours) of treatment, cells were lysed with 3 μl of the 5× lysis buffer (provided and incubated at room temperature for 15 min on a microtiter plate shaker). Once cells were sufficiently lysed, 7.5 μl of the acceptor bead mix (made using the manufacturers recommended dilutions) was added to each well and left on the microtiter plate shaker for 1 min prior to incubating plates at room temperature for one hour, in the absence of light. After one hour of incubation with the acceptor bead mix, 7.5 μl of the donor bead mix (made using the manufacturers recommended dilutions) was added to each well and left on the microtiter plate shaker for 1 min prior to incubating plates at room temperature overnight in the absence of light. Plates were then imaged the following day using a CLARIOstar microplate reader (BMG Labtech, Germany).
Percent of control values were calculated by subtracting the average signal from the positive control (alpelisib) treated wells from all treated wells (including DMSO control wells) and then divided by the average signal from the vehicle DMSO treated control wells. Percent of vehicle control values were plotted as log (inhibitor) vs. response-Variable slope (four parameters) for curve fitting and IC50 values were determined using XLfit.
Key: N.D. =not determined

[3] = tested on: T47D (PI3Kα H1047R mutant) cells; assay: CellTiter-Glo 2.0 luminescent cell viability assay, 72 hours, T47D cells; conditions: Homo sapiens, T47D, 72 h
In short: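 Cells seeded at 1000 per well overnight were dosed with a 10-concentration, 1:4 series starting at 10 µM and incubated ~72 h at 37° C. Viability was read by CellTiter-Glo 2.0 luminescence after 30 min at room temperature. IC50 came from four-parameter fits of percent vehicle control.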

[4] = tested on: SKBR3 (PI3Kα wild type) cells; assay: CellTiter-Glo 2.0 luminescent cell viability assay, 72 hours, SKBR3 cells; conditions: Homo sapiens, SK-BR-3, 72 h
In short: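 Viability measured via CTG luminescence following roughly 72 hours of compound exposure at 37° C. Dosing used a 10 um starting concentration diluted 1:4 over 10 points; percent-of-vehicle data fitted with a variable-slope four-parameter model for IC50.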

[5] = T47D (PI3Kα H1047R mutant) cells, inhibition of pAKT (pS473) formation, approximately one hour or 24 hours treatment, read-out: T47D pAKT (H1047R mutant) IC50
[6] = T47D (PI3Kα H1047R mutant) cells, CellTiter-Glo, approximately 72 hours, read-out: T47D (H1047R mutant) Viability IC50
[7] = SKBR3 (PI3Kα wild type) cells, CellTiter-Glo, approximately 72 hours, read-out: SKBR3 (WT) Viability IC50

SMILES	IC50 [1, 5] [nM]	IC50 [2] [nM]	IC50 [3, 6] [nM]	IC50 [4, 7] [nM]	IC50 ([1]; read-out: T47D pAKT (H1047R mutant) IC50 (nM)) [nM]	IC50 ([3]; read-out: T47D (H1047R mutant) Viability IC50 (nM)) [nM]	IC50 ([4]; read-out: SKBR3 (WT) Viability IC50 (nM)) [nM]
Cc1cc([C@@H](C)Nc2ccccc2C(=O)O)c2nc(C3CCC(F)(F)CC3)c(C#N)c(=O)n2c1 [Example 10-65, (R)-2-((1-(3-cyano-2-(4,4-difluorocyclohexyl)-7-methyl-4-oxo-4H-pyrido[1,2-a]pyrimidin-9-yl)ethyl)amino)benzoic acid]	3.25	681	246	> 10000	–	–	–
Cc1cc([C@@H](C)Nc2ccccc2C(=O)O)c2nc(N3CCCCC3)c(C(N)=O)c(=O)n2c1 [Example 10-70, (R)-2-((1-(3-carbamoyl-7-methyl-4-oxo-2-(piperidin-1-yl)-4H-pyrido[1,2-a]pyrimidin-9-yl)ethyl)amino)benzoic acid]	> 10000	> 10000	4680	> 10000	–	–	–
Cc1cc([C@@H](C)Nc2ccccc2C(=O)O)c2nc(N3CC4(C3)CC(F)(F)C4)c(C#N)c(=O)n2c1 [Example 10-66, (R)-2-((1-(3-cyano-2-(6,6-difluoro-2-azaspiro[3.3]heptan-2-yl)-7-methyl-4-oxo-4H-pyrido[1,2-a]pyrimidin-9-yl)ethyl)amino)benzoic acid]	1370	> 10000	> 10000	> 10000	–	–	–
Cc1cc([C@@H](C)Nc2ccccc2C(=O)O)c2nc(N3CC4CC(C3)C4(F)F)c(C#N)c(=O)n2c1 [Example 10-69, 2-(((1R)-1-(3-cyano-2-(6,6-difluoro-3-azabicyclo[3.1.1]heptan-3-yl)-7-methyl-4-oxo-4H-pyrido[1,2-a]pyrimidin-9-yl)ethyl)amino)benzoic acid]	3.69	1800	165	> 10000	–	–	–
Cc1cc([C@@H](C)Nc2nccnc2C(=O)O)c2nc(N3CCC(F)(F)CC3)c(C#N)c(=O)n2c1 [Example 10-63, (R)-3-((1-(3-cyano-2-(4,4-difluoropiperidin-1-yl)-7-methyl-4-oxo-4H-pyrido[1,2-a]pyrimidin-9-yl)ethyl)amino)pyrazine-2-carboxylic acid]	144	> 10000	3720	> 10000	–	–	–
Cc1cc([C@@H](C)Nc2ccccc2C(=O)O)c2nc(N3CC(F)(F)C3)c(C#N)c(=O)n2c1 [Example 10-27, (R)-2-((1-(3-cyano-2-(3,3-difluoroazetidin-1-yl)-7-methyl-4-oxo-4H-pyrido[1,2-a]pyrimidin-9-yl)ethyl)amino)benzoic acid]	2.1	780	52	> 10000	–	–	–
Cc1ccc(-c2cc(=O)n3cc(C)cc(C(C)Nc4ccccc4C(=O)O)c3n2)cc1 (centres unmarked) [7-2, 2-((1-(7-methyl-4-oxo-2-(p-tolyl)-4H-pyrido[1,2-a]pyrimidin-9-yl)ethyl)amino)benzoic acid]	> 100000	> 10000	> 10000	> 10000	–	–	–
Cc1cc([C@@H](C)Nc2ccccc2C(=O)O)c2nc(N3CCCC3)c(C#N)c(=O)n2c1 [Example 10-73, (R)-2-((1-(3-cyano-7-methyl-4-oxo-2-(pyrrolidin-1-yl)-4H-pyrido[1,2-a]pyrimidin-9-yl)ethyl)amino)benzoic acid]	3.29	1030	135	> 10000	–	–	–
Cc1cc([C@@H](C)Nc2cccc(F)c2C(=O)O)c2nc(N3CCC(F)(F)CC3)c(C#N)c(=O)n2c1 [Example 10-62, (R)-2-((1-(3-cyano-2-(4,4-difluoropiperidin-1-yl)-7-methyl-4-oxo-4H-pyrido[1,2-a]pyrimidin-9-yl)ethyl)amino)-6-fluorobenzoic acid]	4.84	8650	566	> 10000	–	–	–
Cc1cc([C@@H](C)Nc2ccccc2C(=O)O)c2nc(N3CCCCC3)c(C#N)c(=O)n2c1 [Example 10-99, (R)-2-((1-(3-cyano-7-methyl-4-oxo-2-(piperidin-1-yl)-4H-pyrido[1,2-a]pyrimidin-9-yl)ethyl)amino)benzoic acid]	0.978	2260	86.2	9940	–	–	–
Cc1cc([C@@H](C)Nc2ccc(Cl)cc2C(=O)O)c2nc(N3CCC(F)(F)CC3)c(C#N)c(=O)n2c1 [Example 10-64, (R)-5-chloro-2-((1-(3-cyano-2-(4,4-difluoropiperidin-1-yl)-7-methyl-4-oxo-4H-pyrido[1,2-a]pyrimidin-9-yl)ethyl)amino)benzoic acid]	16.1	847	628	> 10000	–	–	–
Cc1cc([C@@H](C)Nc2ccccc2C(=O)O)c2nc(N3CCC(C)(C)CC3)c(C#N)c(=O)n2c1 [Example 10-72, (R)-2-((1-(3-cyano-2-(4,4-dimethylpiperidin-1-yl)-7-methyl-4-oxo-4H-pyrido[1,2-a]pyrimidin-9-yl)ethyl)amino)benzoic acid]	1.33	2480	151	> 10000	–	–	–
Cc1cc([C@@H](C)Nc2ccccc2C(=O)O)c2nc(N3CCCCC3)c(C)c(=O)n2c1 [Example 10-74, (R)-2-((1-(3,7-dimethyl-4-oxo-2-(piperidin-1-yl)-4H-pyrido[1,2-a]pyrimidin-9-yl)ethyl)amino)benzoic acid]	3.23	1460	120	> 10000	–	–	–
Cc1cc([C@@H](C)Nc2ccccc2C(=O)O)c2nc(N3CCC(F)(F)CC3)c(C#N)c(=O)n2c1 [Example 10-23, (R)-2-((1-(3-cyano-2-(4,4-difluoropiperidin-1-yl)-7-methyl-4-oxo-4H-pyrido[1,2-a]pyrimidin-9-yl)ethyl)amino)benzoic acid]	1.35	1200	48.3	8970	–	–	–
Cc1cc(C(C)Nc2ccccc2C(=O)O)c2nc(N3CCCCC3)cc(=O)n2c1 (centres unmarked) [Example 2, 2-((1-(7-methyl-4-oxo-2-(piperidin-1-yl)-4H-pyrido[1,2-a]pyrimidin-9-yl)ethyl)amino) benzoic acid]	–	> 10000	–	–	14	2970	> 10000
Cc1cc([C@@H](C)Nc2ccccc2C(=O)O)c2nc(N3CCS(=O)(=O)CC3)c(C#N)c(=O)n2c1 [Example 10-68, (R)-2-((1-(3-cyano-2-(1,1-dioxidothiomorpholino)-7-methyl-4-oxo-4H-pyrido[1,2-a]pyrimidin-9-yl)ethyl)amino)benzoic acid]	375	> 10000	> 10000	> 10000	–	–	–
Cc1cc([C@@H](C)Nc2cscc2C(=O)O)c2nc(N3CCC(F)(F)CC3)c(C#N)c(=O)n2c1 [Example 10-61, (R)-4-((1-(3-cyano-2-(4,4-difluoropiperidin-1-yl)-7-methyl-4-oxo-4H-pyrido[1,2-a]pyrimidin-9-yl)ethyl)amino)thiophene-3-carboxylic acid]	7.7	3650	183	> 10000	–	–	–

Source: US20260078120A1, “SUBSTITUTED PYRIDOPYRIMIDINONES” (MIRATI THERAPEUTICS, INC., priority 2022, published 2026)
